One data set deals with EGFR tyrosine kinase. Also noted: method as in doi:10.21608/jabps.2021.77469.1129, PMID 24731281. The conditions noted are these: literature values ref [4],[29]; read-out: EGFR tyrosine kinase inhibitory activity IC50; cited from earlier work.
Data set [1] deals with human myelogenous leukemia cell line K562. Put plainly: WST-8 antiproliferative assay, K562. Type of data set: cell-based. How it is done: (§1) Compounds 7a–j, 8a–j, 9a–c, and 10a–c were evaluated for in vitro anticancer activities against five different cancer cell lines, namely, human colorectal adenocarcinoma cell lines DLD-1, human cervical cancer cell line Hela, human pancreatic cancer cell line SUIT-2, human myelogenous leukemia cell line K562, and human hepatocellular carcinoma cell line HepG2 using WST-8 assay at concentrations of 100 µM to investigate the growth inhibition percent (GI%) of each compound using daunorubicin as a reference drug. […]. […] So, as a conclusion on the SAR study of those compounds as antiproliferative agents, the oxime moiety potentiated the anticancer activity and electron donating groups on R1 and R2 played an important role on this activity. Moreover, the sulfamoyl moiety on R3 seems to play a potential role in the activity of the prepared compounds (Table 1).
(§2) All selected compounds and daunorubicin were recorded as the minimum concentration required to inhibit half cell growth (IC50) and the results are listed in Table 2.
(§3) Evaluation of anticancer activity was performed according to the standard water-soluble tetrazolium-8 (WST-8) assay at the Faculty of Engineering, Yamagata University, Yonezawa, Japan, using an MTP-310 absorbance microplate reader. The EGFR inhibitory assay was carried out at the Faculty of Engineering, Yamagata University, Yonezawa, Japan, according to the protocol enzyme linked immunosorbent assay (ELISA) kits (Douset sandwich ELISA test, recombinant mouse EGFR). The JNK-2 inhibitory assay was performed at the Faculty of Engineering, Yamagata University, Yonezawa, Japan, according to the protocol of enzyme-linked immunosorbent assay (ELISA), the assay was carried out using the JNK-2 kit (Simple Step ELISA, pT183/Y185, Abcam Company, Cambridge, CB2 0AX, UK). Apoptosis and cell cycle analysis was performed at Faculty of medicine, Yamagata University, Yamagata, Japan, using BD FACS melody. Molecular docking was performed at the Nano Medical Engineering Laboratory, RIKEN Cluster for Pioneering Researchers, RIEKN, Japan, using ICM-Pro 3.8 software (MolSoft L.L.C., San Diego, CA, USA).
(§4) According to the standard water-soluble tetrazolium-8 (WST-8) assay, the current synthesized compounds have been tested for their anticancer activities against different five cancer cell lines; DLD-1, Hela, K562, SUIT-2, and HepG2 and daunorubicin was used as reference drug by the WST-8 assay. The five cells were maintained in a suspension culture, (Dulbecco’s modified eagle medium (DMEM) for SUIT-2, Hela, and HepG2 or PRIM for K562 and DLD), supplemented with 5% FBS (Fetal Bovine Serum) containing 1% of a penicillin-streptomycin (1:1) mixture. A 100 μL aliquot of cells (10,000 cells/mL) was added to a 96 well plate and incubated for 24 h at 37 °C in a humidified incubator containing 5% CO2 in the air. […] Then A 10 μL WST-8 solution (mixture of WST-8 and 1-methoxy PMS) was added to each well and the incubation continued for 3 h. The visible absorbance at 450 nm and 630 nm as the reference wavelength of each well was quantified using an MTP-310 absorbance microplate reader. Daunorubicin was used as a positive control. The results of cytotoxicity were recorded as growth inhibition percentages and as IC50 values.
(Tetrazolium dyes change colour on reduction, which living cells bring about.)

The subject of data set [2] is human colorectal adenocarcinoma cell line DLD-1. Put plainly: WST-8 antiproliferative assay, DLD-1. The data set is classed as cell-based. Here is the method:
as §1, §2, §3
(§5) According to the standard water-soluble tetrazolium-8 (WST-8) assay, the current synthesized compounds have been tested for their anticancer activities against different five cancer cell lines; DLD-1, Hela, K562, SUIT-2, and HepG2 and daunorubicin was used as reference drug by the WST-8 assay. The five cells were maintained in a suspension culture, (Dulbecco’s modified eagle medium (DMEM) for SUIT-2, Hela, and HepG2 or PRIM for K562 and DLD), supplemented with 5% FBS (Fetal Bovine Serum) containing 1% of a penicillin-streptomycin (1:1) mixture. A 100 μL aliquot of cells (10,000 cells/mL) was added to a 96 well plate and incubated for 24 h at 37 °C in a humidified incubator containing 5% CO2 in the air. After 24 h, a 10 μL aliquot of test compound (concentrations varying in the range of 10–150 µM) was added to each of the 96 wells and incubated for 24 h. Then A 10 μL WST-8 solution (mixture of WST-8 and 1-methoxy PMS) was added to each well and the incubation continued for 3 h. The visible absorbance at 450 nm and 630 nm as the reference wavelength of each well was quantified using an MTP-310 absorbance microplate reader. Daunorubicin was used as a positive control. The results of cytotoxicity were recorded as growth inhibition percentages and as IC50 values.

Data set [3] concerns human pancreatic cancer cell line SUIT-2. Put plainly: WST-8 antiproliferative assay, SUIT-2. Type of data set: cell-based. How it is done:
as §1, §2, §3, §5

Data set [4] relates to human cervical cancer cell line Hela. Put plainly: WST-8 antiproliferative assay, Hela. The settings on record: for inhibition at 100 µM: read-out: Growth Inhibition (GI%) Hela; for IC50: read-out: IC50 Hela. The data set is classed as cell-based. Here is the method:
as §1, §2, §3, §4

The subject of data set [5] is human hepatocellular carcinoma cell line HepG2. Kind of data set: WST-8 antiproliferative assay, HepG2. The data set is classed as cell-based. Here is the method:
as §1, §2, §3, §5

Data set [6] deals with human colorectal adenocarcinoma cell line DLD-1. Kind of data set: WST-8 antiproliferative assay, DLD-1. The data set is classed as cell-based. The conditions noted are these: WST-8 assay, six concentrations 1-100 µM.
Data set [7] has as its system human pancreatic cancer cell line SUIT-2. Put plainly: WST-8 antiproliferative assay, SUIT-2. The conditions noted are these: WST-8 assay, six concentrations 1-100 µM. The data set is classed as cell-based.
Data set [8] concerns PC12 (rat adrenal-derived pheochromocytoma cells). Kind of data set: WST-8 cytotoxicity towards normal cell line PC12. The data set is classed as cell-based. The conditions noted are these: Rattus norvegicus, PC-12, read-out: percentage growth inhibition PC12. How it is done:
The evaluation of normal cell viability is fundamental in analyzing the efficacy of target compounds and is often used in conjunction with cytotoxicity tests to help understand how target compound toxicity affects normal cell health. […] A 100 μL aliquot of cells (10,000 cells/mL) was added to a 96 well plate and incubated for 24 h at 37 °C in a humidified incubator containing 5% CO2 in the air. […] Then, a 10 μL WST-8 solution (mixture of WST-8 and 1-methoxy PMS) was added to each well and the incubation continued for 3 h. The visible absorbance at 450 nm and 630 nm as the reference wavelength of each well was quantified using an MTP-310 absorbance microplate reader. Daunorubicin was used as a positive control. The results of cytotoxicity were recorded as growth inhibition percentages and as IC50 values.

Data set [9] relates to human hepatocellular carcinoma cell line HepG2. Kind of data set: WST-8 antiproliferative assay, HepG2. The data set is classed as cell-based. The conditions noted are these: WST-8 assay, six concentrations 1-100 µM.
[10] abbreviates: Homo sapiens, K562, 100 µM, WST-8 assay, read-out: Growth Inhibition (GI%) K562.
The mark [11] stands for this setting: DLD-1, 100 µM, WST-8 assay, read-out: Growth Inhibition (GI%) DLD-1.
Setting [12] is: SUIT-2, 100 µM, WST-8 assay, read-out: Growth Inhibition (GI%) SUIT-2.
Setting [13] is: HepG2, 100 µM, WST-8 assay, read-out: Growth Inhibition (GI%) HepG2.
Setting [14] is: WST-8 assay, six concentrations 1-100 µM.

Where two headings read alike, the source gives them in different places.

On to `COc1ccc(-c2cc(-c3ccc(C)c(C)c3)nn2C(N)=S)cc1` [Compound I], for which the IC50 on EGFR tyrosine kinase was 0.07 µM.

The inhibition is the drop in the measured response relative to a control, in per cent. By melting point is commonly meant the temperature of the solid-liquid transition. `COc1cc(C(C)=O)ccc1OC(=O)c1cc(-c2ccc(C)cc2)n(-c2ccc(S(N)(=O)=O)cc2)n1` [Compound 7g, 4–Acetyl–2–methoxyphenyl–1–(4–sulfamoylphenyl) 5–p–tolyl–1H–pyrazole–3–carboxylate] returned a melting point of 83 to 85 °C. In addition, the inhibition at 100 µM in data set [1] (setting [10]) was found to be 77%. In addition, the inhibition at 100 µM in data set [2] (setting [11]) was determined as 96.7%. Further, the inhibition at 100 µM in data set [3] (setting [12]) worked out at 92%. Besides, the inhibition at 100 µM in [4] (100 µM, WST-8 assay) was 30%. Also, the inhibition at 100 µM in data set [5] (setting [13]) was 66%. In [6], the IC50 came to 13 µM. In [7], this molecule registered an IC50 of 31 µM.

Regarding `Cc1ccc(-c2cc(-c3ccc4ccccc4c3)n(C3=NC(=O)CS3)n2)cc1C` [II], the IC50 at EGFR tyrosine kinase is 0.06 µM.

`COc1cccc2c1C(=O)c1c(O)c3c(c(O)c1C2=O)C[C@@](O)(C(C)=O)C[C@@H]3O[C@H]1C[C@H](N)[C@H](O)[C@H](C)O1` [Daunorubicin, daunorubicin, reference compound]: the inhibition at 100 µM was found to be 100% in data set [1] (Homo sapiens, K562, read-out: Growth Inhibition (GI%) K562); 82.5% in [2] (DLD-1, read-out: Growth Inhibition (GI%) DLD-1); 92% in [3] (SUIT-2, read-out: Growth Inhibition (GI%) SUIT-2); 100% in data set [4]; 100% in data set [5] (HepG2, read-out: Growth Inhibition (GI%) HepG2); 113% in [8]. In addition, the IC50 in [1] (Homo sapiens, K562, read-out: IC50 K562, WST-8 assay, six concentrations 1-100 µM) came to 13 µM; in data set [1] (read-out: IC50 K562, WST-8 assay, six concentrations 1-100 µM), 13.3 µM; in [2] (DLD-1, read-out: IC50 DLD-1), 30 µM; in data set [3] (SUIT-2, read-out: IC50 SUIT-2) it was 9 µM; in [4], 0.097 µM; in data set [5] (HepG2, read-out: IC50 HepG2) it was 22 µM. In data set [8], the inhibition at 1 µM stood at 81%. In data set [8], the inhibition at 50 µM was 107%.

As to `COc1cc(C(C)=O)ccc1OC(=O)c1cc(-c2ccc(Cl)cc2)n(-c2ccccc2)n1` [Compound 7d, 4–Acetyl–2–methoxyphenyl–5–(4–chlorophenyl) 1–phenyl–1H–pyrazole–3–carboxylate], the melting point lay in the range of 85 to 87 °C. In data set [1] (setting [10]), the inhibition at 100 µM came out at 50%. For the same molecule, the inhibition at 100 µM in data set [2] (setting [11]) was 72%. The inhibition at 100 µM in [3] (setting [12]) amounted to 104%. The inhibition at 100 µM in data set [4] (100 µM, WST-8 assay) was found to be 104%. Also, the IC50 in data set [4] (setting [14]) came to 15 µM. Besides, in data set [5] (setting [13]), the inhibition at 100 µM came to 31%. In addition, the IC50 in [6] amounted to 81 µM. In data set [7], this molecule displayed an IC50 of 43 µM.

Consider `COc1cc(C(C)=O)ccc1OC(=O)c1cc(-c2ccc(C)cc2)n(-c2ccccc2)n1` [Compound 7b, 4–Acetyl–2–methoxyphenyl–1–phenyl 5–p–tolyl–1H–pyrazole–3–carboxylate], for which the melting point lay within 110 to 112 °C. Moreover, the IC50 in data set [9] is 45 µM. For the same molecule, in [1] (setting [10]), the inhibition at 100 µM was determined as 70%. In [2] (setting [11]), the inhibition at 100 µM amounted to 81%. Besides, the inhibition at 100 µM in [3] (setting [12]) was 103%. In addition, the inhibition at 100 µM in data set [4] (100 µM, WST-8 assay) turned out to be 83%. In addition, the IC50 in data set [4] (setting [14]) was 55 µM. The inhibition at 100 µM in data set [5] (setting [13]) is 85%. Besides, the IC50 in data set [6] came out at 13 µM. Besides, in data set [7], the IC50 stood at 45 µM.

(Values after PMC10537604, “Development and Assessment of 1,5–Diarylpyrazole/Oxime Hybrids Targeting EGFR and JNK–2 as Antiproliferative Agents: A Comprehensive Study through Synthesis, Molecular Docking, and Evaluation” (Molecules, 2023).)
